For assay [1], the species on record is Homo sapiens. As to the kind of experiment: Selectivity ratio of EC50 for human 5HT2B receptor to EC50 for human 5HT2C receptor.
Assay [2] has as its target 5-hydroxytryptamine receptor 2B (Homo sapiens, UniProt P41595). As to the kind of experiment: Agonist activity at human 5HT2B receptor expressed in HEK293 cells at 10 uM assessed as calcium flux by FLIPR assay relative to serotonin. The assay is classed as functional, cell-based. A general note: Calcium flux is commonly read through the fluorescence of an indicator in the cells.

Assay [3] addresses T1, 5-hydroxytryptamine receptor 2A (Homo sapiens, UniProt P28223). As to the kind of experiment: Agonist activity at human 5HT2A receptor expressed in HEK293 cells at 10 uM assessed as calcium flux by FLIPR assay relative to serotonin. It counts as functional, cell-based.
In assay [4] the target is T1, 5-hydroxytryptamine receptor 2A. As to the kind of experiment: Agonist activity at human 5HT2A receptor expressed in HEK293 cells assessed as calcium flux by FLIPR assay. The assay is classed as functional, cell-based.
Assay [5] has as its target T2, 5-hydroxytryptamine receptor 2C (Homo sapiens) (UniProt P28335).
T2 sequence (whole entry): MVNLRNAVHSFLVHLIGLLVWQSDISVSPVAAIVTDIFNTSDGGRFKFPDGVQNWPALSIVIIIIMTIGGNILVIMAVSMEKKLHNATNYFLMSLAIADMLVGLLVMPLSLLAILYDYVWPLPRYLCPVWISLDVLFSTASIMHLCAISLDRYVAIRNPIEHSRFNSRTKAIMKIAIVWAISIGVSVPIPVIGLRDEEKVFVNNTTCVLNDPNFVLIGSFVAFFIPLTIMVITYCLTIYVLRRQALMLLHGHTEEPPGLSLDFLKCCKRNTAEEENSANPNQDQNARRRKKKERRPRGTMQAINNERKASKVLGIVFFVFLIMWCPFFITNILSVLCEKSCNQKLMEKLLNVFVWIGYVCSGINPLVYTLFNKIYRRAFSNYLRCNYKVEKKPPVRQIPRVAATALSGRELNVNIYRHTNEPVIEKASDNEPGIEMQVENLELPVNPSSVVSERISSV
In words: Agonist activity at human 5HT2C receptor expressed in HEK293 cells at 10 uM assessed as calcium flux by FLIPR assay relative to serotonin. The assay is classed as functional, cell-based.

Assay [6] deals with Serotonin 2 receptors; 5-HT2a & 5-HT2c (Homo sapiens) (UniProt P28223+P28335). As to the kind of experiment: Selectivity ratio of EC50 for human 5HT2A receptor to EC50 for human 5HT2C receptor.
Serotonin 2 receptors; 5-HT2a & 5-HT2c (Homo sapiens), sequence (P28223 whole entry, looked up, one chain of several): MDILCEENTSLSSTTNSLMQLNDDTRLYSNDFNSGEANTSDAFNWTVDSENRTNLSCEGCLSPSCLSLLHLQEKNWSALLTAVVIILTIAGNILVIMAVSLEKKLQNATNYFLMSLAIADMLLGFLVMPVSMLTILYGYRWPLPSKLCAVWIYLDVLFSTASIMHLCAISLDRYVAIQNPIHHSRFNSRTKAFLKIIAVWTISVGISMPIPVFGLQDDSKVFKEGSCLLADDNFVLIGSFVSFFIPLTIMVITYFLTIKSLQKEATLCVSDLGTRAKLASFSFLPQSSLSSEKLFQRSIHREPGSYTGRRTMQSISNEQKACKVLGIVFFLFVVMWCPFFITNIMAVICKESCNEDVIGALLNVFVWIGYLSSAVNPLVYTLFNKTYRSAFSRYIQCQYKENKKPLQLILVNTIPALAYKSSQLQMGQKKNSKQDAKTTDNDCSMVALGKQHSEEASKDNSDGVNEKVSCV

The record followed here is ChEMBL document CHEMBL1153382 (J Med Chem, 2009).

One may read the Emax as the size of the effect at its maximum, as opposed to the concentration needed.

Active and inactive are the calls of the source. No cut-off for these calls is given here.

T1 sequence (P28223 whole entry): as the sequence (P28223 whole entry, looked up, one chain of several) above
5-hydroxytryptamine receptor 2B, sequence (P41595 whole entry): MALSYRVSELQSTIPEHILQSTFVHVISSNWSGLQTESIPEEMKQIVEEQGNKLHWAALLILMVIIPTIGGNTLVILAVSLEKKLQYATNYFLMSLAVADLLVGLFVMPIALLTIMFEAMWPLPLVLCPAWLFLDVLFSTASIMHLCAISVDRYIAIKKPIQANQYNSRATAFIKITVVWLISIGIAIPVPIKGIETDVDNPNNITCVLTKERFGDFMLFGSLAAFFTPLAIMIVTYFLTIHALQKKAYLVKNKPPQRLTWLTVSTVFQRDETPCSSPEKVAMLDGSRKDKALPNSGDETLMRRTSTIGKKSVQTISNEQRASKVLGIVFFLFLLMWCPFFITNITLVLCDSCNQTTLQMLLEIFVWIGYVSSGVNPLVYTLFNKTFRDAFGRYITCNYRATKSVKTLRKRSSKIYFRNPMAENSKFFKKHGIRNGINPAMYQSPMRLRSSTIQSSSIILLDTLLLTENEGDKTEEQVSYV

In the case of `NC[C@@H]1C[C@H]1c1ccccc1`, the Ratio EC50 in assay [1] was determined as 3.4. Further, the maximum response (Emax) in assay [2] was 72%; in assay [3] it was less than 12%; in assay [5] it was 102%. Besides, in assay [4], the outcome was inactive.
For the compound `CNC[C@H]1C[C@@H]1c1ccccc1` (racemic), the maximum response (Emax) in assay [2] is 26%; in assay [3] it was less than 12%; in assay [5], 101%. Besides, in assay [4], the outcome was inactive.
For `NC[C@H]1C[C@H]1c1ccccc1` (racemic), in that order: 20%, less than 12%, 104% and “inactive”.
On to `COc1cccc([C@H]2C[C@@H]2CN)c1` (relative stereo), for which the Ratio EC50 was 4.8 in assay [1] and 39 in assay [6]. In addition, the results for the maximal effect (Emax) in assay [2], in assay [3] and in assay [5] were 96%, 90% and 97%, respectively.
For `COc1ccccc1[C@H]1C[C@@H]1CN` (relative stereo), in that order: 7.7, 84, 83%, 61% and 93%.
For `Cc1cc([C@H]2C[C@@H]2CN)ccc1F` (relative stereo), in that order: 0.83, 39, 83%, 73% and 91%.
On the same counts, the results for `Cc1ccc(Cl)c([C@H]2C[C@@H]2CN)c1F` (relative stereo) are 9.2, 26, 74%, 65% and 117%.
For `Cc1ccc([C@H]2C[C@@H]2CN)c(Br)c1` (relative stereo), the Ratio EC50 is 1.2 in assay [1] and 4.8 in assay [6]. The figures for the maximal effect (Emax) in assay [2], in assay [3] and in assay [5] were 68%, 62% and 84%, respectively.
For `Cc1ccc([C@H]2C[C@@H]2CN)cc1` (relative stereo), in that order: 0.28, 14, 79%, 18% and 69%.
For `Cc1ccc([C@H]2C[C@@H]2CN)cc1C` (relative stereo), in that order: 0.33, 68, 78%, 40% and 97%.
Consider `Cc1cccc(Cl)c1[C@H]1C[C@@H]1CN` (relative stereo), for which the results for the Ratio EC50 in assay [1] and in assay [6] were 2 and 207, respectively. In addition, the Emax in assay [2] is 90%; in assay [3], 56%; in assay [5] it was 97%.
On the same counts, the results for `Cc1cccc([C@H]2C[C@@H]2CN)c1C` (relative stereo) are 1.2, 52, 90%, 59% and 107%.
On the same counts, the results for `Cc1ccccc1[C@H]1C[C@@H]1CN` (relative stereo) are 2.3, 71, 86%, 69% and 99%.
Turning to `NC[C@@H]1C[C@H]1c1ccccc1` (relative stereo), the Ratio EC50 came to 6 in assay [1] and 106 in assay [6]. Also, the Emax in assay [2] worked out at 93%; in assay [3] it was 74%; in assay [5] it was 96%.
On the same counts, the results for `NC[C@H]1C[C@@H]1c1c(F)cccc1F` (relative stereo) are 39, more than 11, 58%, 38% and 85%.
On the same counts, the results for `NC[C@H]1C[C@@H]1c1ccc(Br)cc1` (relative stereo) are 20, more than 7, 51%, 26% and 87%.
Take `NC[C@H]1C[C@@H]1c1ccc(C(F)(F)F)cc1` (relative stereo): the Emax in assay [2] was 56%; in assay [3], less than 12%; in assay [5], 91%. Further, the outcome in assay [4] was inactive.
Take `NC[C@H]1C[C@@H]1c1ccc(Cl)cc1` (relative stereo): the Ratio EC50 in assay [1] amounted to 5.3; in assay [6], 59. For the same compound, the Emax in assay [2] was 80%; in assay [3], 64%; in assay [5], 106%.
On the same counts, the results for `NC[C@H]1C[C@@H]1c1ccc(Cl)cc1Cl` (relative stereo) are 4.7, 2.9, 89%, 88% and 98%.
On the same counts, the results for `NC[C@H]1C[C@@H]1c1ccc(Cl)cc1F` (relative stereo) are 3.6, 6.1, 86%, 83% and 94%.
For `NC[C@H]1C[C@@H]1c1ccc(F)c(F)c1` (relative stereo), in that order: 3.2, 64, 96%, 96% and 103%.
Regarding `NC[C@H]1C[C@@H]1c1ccc(F)cc1F` (relative stereo), the Ratio EC50 in assay [1] was found to be 9.9; in assay [6], 13. In addition, the maximal response (Emax) in assay [2] stood at 88%; in assay [3], 85%; in assay [5] it was 98%.
Turning to `NC[C@H]1C[C@@H]1c1ccc2ccccc2c1` (relative stereo), the Ratio EC50 in assay [1] stood at 0.18. The maximal effect (Emax) in assay [2] was 21%; in assay [3], less than 12%; in assay [5], 60%. Besides, the result in assay [4] was inactive.
Consider `NC[C@H]1C[C@@H]1c1cccc(Br)c1` (relative stereo), for which the Ratio EC50 turned out to be 10 in assay [1] and 123 in assay [6]. The Emax in assay [2] was 74%; in assay [3] it was 55%; in assay [5] it was 90%.
On the same counts, the results for `NC[C@H]1C[C@@H]1c1cccc(C(F)(F)F)c1` (relative stereo) are 2.6, 50, 78%, 35% and 94%.
For `NC[C@H]1C[C@@H]1c1cccc(Cl)c1` (relative stereo), in that order: 5.9, 189, 78%, 42% and 98%.
On the same counts, the results for `NC[C@H]1C[C@@H]1c1cccc(Cl)c1Cl` (relative stereo) are 1.4, 33, 89%, 77% and 96%.
Regarding `NC[C@H]1C[C@@H]1c1cccc(F)c1` (relative stereo), the Ratio EC50 in assay [1] was 1.1; in assay [6], 131. Further, the maximum response (Emax) is 87% in assay [2], 71% in assay [3] and 92% in assay [5].
Turning to `NC[C@H]1C[C@@H]1c1cccc(F)c1F` (relative stereo), the Ratio EC50 in assay [1] is 3.7; in assay [6], more than 50. In addition, the results for the maximal response (Emax) in assay [2], in assay [3] and in assay [5] were 93%, 45% and 101%, respectively.
Consider `NC[C@H]1C[C@@H]1c1cccc(O)c1` (relative stereo), for which the results for the Ratio EC50 in assay [1] and in assay [6] were 1.7 and 75, respectively. The maximal response (Emax) in assay [2] came to 98%; in assay [3], 92%; in assay [5], 94%.
Consider `NC[C@H]1C[C@@H]1c1ccccc1C(F)(F)F` (relative stereo), for which the Ratio EC50 in assay [1] turned out to be 7.2. Further, the values for the Emax in assay [2], in assay [3] and in assay [5] were 102%, less than 12% and 101%, respectively. Moreover, the result in assay [4] was inactive.
Consider `NC[C@H]1C[C@@H]1c1ccccc1Cl` (relative stereo), for which the values for the Ratio EC50 in assay [1] and in assay [6] were 5.8 and 31, respectively. Also, the results for the Emax in assay [2], in assay [3] and in assay [5] were 82%, 54% and 94%, respectively.
As for `NC[C@H]1C[C@@H]1c1ccccc1F` (relative stereo), the Ratio EC50 in assay [1] came to 2.1; in assay [6], 20. Also, the values for the maximal response (Emax) in assay [2], in assay [3] and in assay [5] were 65%, 52% and 91%, respectively.
On the same counts, the results for `NC[C@H]1C[C@@H]1c1ccccc1O` (relative stereo) are 3.1, 3.2, 74%, 81% and 94%.
